Assay results: ChEMBL document CHEMBL1201862, “PubChem BioAssay data set” (2004)
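These data come from cells grown in 96-well plates and exposed to compound for 48 hours at five concentrations. The concentration for 50% growth inhibition is given as GI50.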 Calls of active or inactive are those of the source. Rule as the data show it: active = GI50 up to about 1.1 µM and inactive = higher.

Legend:
Assay in all cases: NCI anticancer screen, dose series, 48 h
[1] = tested on: HOP-92
[2] = tested on: U-251
[3] = tested on: UO-31
[4] = tested on: EKVX
[5] = tested on: KM12
[6] = tested on: UACC-62
[7] = tested on: SW-620
[8] = tested on: CAKI-1
[9] = tested on: HL-60
[10] = tested on: SK-OV-3
[11] = tested on: SR
[12] = tested on: LXFL 529
[13] = tested on: SF-295
[14] = tested on: HOP-18
[15] = tested on: M14
[16] = tested on: SK-MEL-2
[17] = tested on: HT-29
[18] = tested on: OVCAR-4
[19] = tested on: PC-3
[20] = tested on: BT-549

Row | Compound | GI50 [1] | GI50 [2] | GI50 [3] | GI50 [4] | GI50 [5] | GI50 [6] | GI50 [7] | GI50 [8] | GI50 [9] | GI50 [10] | GI50 [11] | GI50 [12] | GI50 [13] | GI50 [14] | GI50 [15] | GI50 [16] | GI50 [17] | GI50 [18] | GI50 [19] | GI50 [20]
1 | O=C1C(=Cc2c(O)cc(O)cc2O)C(=O)c2ccccc21 | > 38.5 µM (inactive) | > 42.9 µM (inactive) | > 100 µM (inactive) | > 79.8 µM (inactive) | > 36.7 µM (inactive) | > 40.5 µM (inactive) | > 42.1 µM (inactive) | > 45.9 µM (inactive) | 16.8 µM (inactive) | > 100 µM (inactive) | 13.6 µM (inactive) | > 43.5 µM (inactive) | > 41.9 µM (inactive) | 27.4 µM (inactive) | > 43.3 µM (inactive) | > 40.1 µM (inactive) | > 42.1 µM (inactive) | > 48.2 µM (inactive) |  | 
2 | N#C/C(=C1\OC(=N)C(c2ccccc2)C1=O)c1ccccc1 (stereo unspecified) | 33.8 µM (inactive) | > 100 µM (inactive) | 19.6 µM (inactive) | 36.5 µM (inactive) | 48.2 µM (inactive) | 22.2 µM (inactive) | 23.1 µM (inactive) | 30.6 µM (inactive) | 23.4 µM (inactive) | > 100 µM (inactive) |  | 17.8 µM (inactive) | > 100 µM (inactive) | 28.6 µM (inactive) | 24.4 µM (inactive) | > 52.2 µM (inactive) | 22.5 µM (inactive) | 40.1 µM (inactive) |  | 
3 | COC(=O)C1CCCC2(C1)OCCO2 (stereo unspecified) | > 100 µM (inactive) | > 100 µM (inactive) | > 100 µM (inactive) | > 100 µM (inactive) | > 100 µM (inactive) | > 100 µM (inactive) | > 100 µM (inactive) | > 100 µM (inactive) |  | > 100 µM (inactive) | > 100 µM (inactive) | > 100 µM (inactive) | > 100 µM (inactive) | > 100 µM (inactive) | > 100 µM (inactive) | > 100 µM (inactive) | > 100 µM (inactive) | > 100 µM (inactive) |  | 
4 | Nc1nc(Cl)cc(NCC(O)CO)n1 (stereo unspecified) | > 100 µM (inactive) | > 100 µM (inactive) | > 100 µM (inactive) | > 100 µM (inactive) | > 100 µM (inactive) | > 100 µM (inactive) | > 100 µM (inactive) |  | > 100 µM (inactive) | > 100 µM (inactive) | > 100 µM (inactive) | > 100 µM (inactive) | > 100 µM (inactive) | > 100 µM (inactive) | > 100 µM (inactive) | > 100 µM (inactive) | > 100 µM (inactive) | > 100 µM (inactive) |  | 
5 | CCOC(=O)C1([Se]c2ccccc2)CCCC1=O (stereo unspecified) | 25.5 µM (inactive) | 9.95 µM (inactive) | 23.6 µM (inactive) | 23.6 µM (inactive) | 30.9 µM (inactive) | 14.7 µM (inactive) |  | 44.5 µM (inactive) | 4.78 µM (inactive) | > 100 µM (inactive) | 14 µM (inactive) | 14.8 µM (inactive) | 31.8 µM (inactive) | 20.1 µM (inactive) | 21.3 µM (inactive) | 32.8 µM (inactive) | 37.8 µM (inactive) | 18.8 µM (inactive) |  | 
6 | COc1ccccc1NC(=O)C1=C(C)NC(C)=C(C(=O)Nc2ccccc2OC)C1C1=CC=COC1 | 25.9 µM (inactive) | 9.71 µM (inactive) | 25.9 µM (inactive) | 10.8 µM (inactive) | 9.14 µM (inactive) | 3.3 µM (inactive) | 6.7 µM (inactive) | 4.65 µM (inactive) | 3.94 µM (inactive) | 10.4 µM (inactive) |  | 11.1 µM (inactive) | 6.73 µM (inactive) | 28.5 µM (inactive) | 5.2 µM (inactive) |  | 4.46 µM (inactive) | 30.5 µM (inactive) |  | 
7 | CN1CCc2cc3c4cc2C1Cc1ccc(cc1)Oc1cc(ccc1O)CC1c2c(cc(O)c(c2O4)O3)CCN1C (stereo unspecified) | 2.52 µM (inactive) | 1.69 µM (inactive) | 3.44 µM (inactive) | 7.08 µM (inactive) | 1.86 µM (inactive) | 2.02 µM (inactive) | 2.22 µM (inactive) | 10.5 µM (inactive) | 4.65 µM (inactive) | 3.1 µM (inactive) | 3.92 µM (inactive) | 2.53 µM (inactive) | 1.56 µM (inactive) | 3.52 µM (inactive) | 1.62 µM (inactive) | 1.67 µM (inactive) | 2.8 µM (inactive) | 2.22 µM (inactive) |  | 
8 | Cc1ccc(S(=O)(=O)OCC/C(=C\[Si](C)(C)C)c2ccccc2)cc1 | > 100 µM (inactive) | > 100 µM (inactive) | > 100 µM (inactive) | > 100 µM (inactive) | > 100 µM (inactive) | > 100 µM (inactive) | > 100 µM (inactive) | > 100 µM (inactive) | 91 µM (inactive) | > 100 µM (inactive) | 24 µM (inactive) | > 100 µM (inactive) | > 100 µM (inactive) | > 100 µM (inactive) | > 100 µM (inactive) | > 100 µM (inactive) | > 100 µM (inactive) | > 100 µM (inactive) |  | 
9 | CCc1c(OC(C)=O)c2c(NC3OCC(OC(C)=O)C(OC(C)=O)C3OC(C)=O)nc(SC)nc2oc1=O (stereo unspecified) | > 100 µM (inactive) | > 100 µM (inactive) | > 100 µM (inactive) | > 100 µM (inactive) | > 100 µM (inactive) | > 100 µM (inactive) | > 100 µM (inactive) | > 100 µM (inactive) | > 100 µM (inactive) | > 100 µM (inactive) |  | > 100 µM (inactive) | > 100 µM (inactive) | > 100 µM (inactive) | > 100 µM (inactive) | > 100 µM (inactive) | > 100 µM (inactive) | > 100 µM (inactive) |  | 
10 | C=C1C(=O)C23CC1CCC2C12CO[C@@H]4OCC(C)(CC[C@@H]1OC3=O)C42 (stereo partly specified) | 2.64 µM (inactive) | 14 µM (inactive) | 9.71 µM (inactive) | 15.5 µM (inactive) | 5.43 µM (inactive) | 11.7 µM (inactive) | 2.49 µM (inactive) | 2.38 µM (inactive) | 0.569 µM (active) | 23.3 µM (inactive) | 1.35 µM (inactive) | 2.78 µM (inactive) | 16.9 µM (inactive) | 6.41 µM (inactive) | 1.31 µM (inactive) | 11.9 µM (inactive) | 2.54 µM (inactive) |  |  | 
11 | COC(=O)Nc1nc2cc(C(=O)c3cccs3)ccc2[nH]1 [NOCODAZOLE] | 0.292 µM (active) | 0.0403 µM (active) | 0.0579 µM (active) | 0.0397 µM (active) | 0.0139 µM (active) | 0.0184 µM (active) | 0.0141 µM (active) | 1.11 µM (active) | 0.0113 µM (active) | 0.0165 µM (active) |  | 0.0532 µM (active) | 0.0128 µM (active) | 32.8 µM (inactive) | 0.014 µM (active) | < 0.0193 µM (active) | 0.0142 µM (active) | 22.3 µM (inactive) | 14.1 nM (active) | 52.7 nM (active)
